Values of other authors, collected in patent US10098922B1, “Increasing telomere length in a cell” (priority 2017, dated 2018).

Columns and labels:
[1] = test system: doxorubicin-induced leukopenia; settings: rats, oral by gavage
rats = settings: AC-11 80 mg/kg plus doxorubicin vs doxorubicin only

O=C(O)[C@]1(O)C[C@@H](O)[C@@H](O)[C@H](O)C1 [QA, quinic acid]
Reversal of doxorubicin-induced leukopenia [1]: about as effective as C-MED-100®

N.O=C(O)C1(O)CC(O)C(O)C(O)C1 (stereo not drawn) [QAA]
Reversal of doxorubicin-induced leukopenia [1]: about as effective as C-MED-100®

COc1cccc2c1C(=O)c1c(O)c3c(c(O)c1C2=O)C[C@@](O)(C(=O)CO)C[C@@H]3O[C@H]1C[C@H](N)[C@H](O)[C@H](C)O1 [doxorubicin]
Mean heart weight coefficient (rats): 0.369%±0.022
